According to patent publication US11331306B2, “Pharmaceutical compositions comprising 4-[1-(2,3-dimethylphenyl)ethyl]-3H-imidazole derivatives for treating retinal diseases” (Allergan, Inc., priority 2011, dated 2022):
Read-outs that look alike come from different tables or passages of the source.

Columns and labels:
alpha 2A receptor = biological target: T1, alpha 2A receptor (Homo sapiens, UniProt P08913); assay: biochemical; conditions: for Relative Efficacy: efficacy relative to the full agonist brimonidine (1.0)
T1 sequence (P08913 1-465): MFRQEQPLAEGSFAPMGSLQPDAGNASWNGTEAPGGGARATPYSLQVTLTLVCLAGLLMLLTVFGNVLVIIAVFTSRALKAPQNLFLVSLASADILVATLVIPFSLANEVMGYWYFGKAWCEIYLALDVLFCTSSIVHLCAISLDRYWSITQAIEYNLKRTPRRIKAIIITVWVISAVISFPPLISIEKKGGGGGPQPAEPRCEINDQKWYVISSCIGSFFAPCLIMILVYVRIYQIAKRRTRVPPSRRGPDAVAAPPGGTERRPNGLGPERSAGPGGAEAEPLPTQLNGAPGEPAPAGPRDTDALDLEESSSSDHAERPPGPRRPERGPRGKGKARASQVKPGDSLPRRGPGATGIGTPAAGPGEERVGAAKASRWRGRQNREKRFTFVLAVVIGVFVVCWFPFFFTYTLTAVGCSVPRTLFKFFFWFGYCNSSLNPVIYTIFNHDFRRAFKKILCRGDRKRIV
Description: In the GTPase assay, receptor activation results in dissociation of GDP and binding of the nonhydrolyzable [^35S]GTPyS to receptor-coupled G-proteins. The extent of binding is a measure of receptor activation. Membranes were prepared from HEK cells transiently expressing the alpha 2A receptor and the three subunits of the Gi G-protein. Membranes were thawed and resuspended using a Polytron disrupter in 4° C. membrane buffer and quantified via Bradford assay. The quantified protein was then added to reaction buffer [50 mM Tris-HCl, 100 mM NaCl, 5 mM MgCl2, 1 mM DTT, 1 mM EDTA, 3 μM propranolol, and 0.1 mM AMP; pH 7.4 and 4° C. to achieve a 100 μg/ml concentration, allowed to incubate for 15 minutes, and then incubated for an additional 10 minutes in the presence of 6 μM GDP. The above mixture was then aliquoted, 50 μL/well, in a 96 well plate, combined with an equal volume of test compound dissolved in assay buffer [50 mM Tris-HCl, 100 mM NaCl, 5 mM MgCl2, 1 mM EDTA, and 1 mM DTT, pH 7.4 and 4° C.], and allowed to incubate for 5 minutes. Immediately following the above incubation, the mixture was combined with 50 μL of 1.5 nM [^35S]GTPyS in assay buffer and shaken covered for 60 minutes at 25° C. Assays were terminated by vacuum filtration over GF/B filters blocked with 0.5% BSA. Filters were then washed with 4° C. wash buffer [50 mM Tris-HCl, 100 mM NaCl, and 5 mM MgCl2, pH 7.5. The incorporated [^35S]GTPyS was determined using a Microbeta 1450B liquid scintillation counter after the plates had dried overnight.

α2A-adrenergic receptor = biological target: T2, α2A-adrenergic receptor (Homo sapiens, UniProt P08913); conditions: for down regulation of alpha 2A receptor (receptor density): binding studies, result in words; for Percent of B max Decrease: 24 hours, HEK 293T cells stably transfected with α2A-adrenergic receptor
T2 sequence (P08913 1-465): T1 sequence (P08913 1-465)
Description: Human embryonic kidney (HEK) 293T cells stably transfected with the α2A-adrenergic receptor were grown to 50-60% confluency on T-175 culture flasks in DMEM (Gibco, cat. #11995), 10% FBS (Gibco, cat. #16140), 0.25 μg/ml puromycin (Sigma, cat. # P-8833), and 1% antibiotic-antimycotic (Gibco, cat. #15240) maintained at 37° C. and 5% CO2. […] The cells were then washed with room temperature Dulbecco's phosphate buffered saline (DPBS; Gibco, cat. #14190).
Cells were harvested with 4° C. Tris-EDTA buffer [50 mM Tris-HCl, 5 mM EDTA; pH 7.4] and centrifuged at 5,000×g for 5 minutes at 4° C. Membrane preparation was conducted by resuspending the cell pellets in 4° C. Tris-EDTA buffer and lysed with a Polytron disrupter two times (setting 7, 5 seconds each). The lysed suspension was then centrifuged at […] for 32 minutes at 4° C. After decanting the supernatant, the pelleted material was further lysed in 4° C. Tris buffer [50 mM Tris-HCl; pH 8.0] using the Polytron disrupter (setting 4, 5 seconds). Membranes were then aliquoted, pelleted at […] for 32 minutes at 4° C., and stored at −80° C. until use.
Membranes were thawed and resuspended using a Polytron disrupter in 4° C. HBSS-HEPES buffer [1 part 1M HEPES: 5 parts 10× Hank's Balanced Salt Solution: 43.8 parts H2O; pH 7.4 with KOH) and quantified via Bradford assay. The quantified protein was further diluted with HBSS-HEPES buffer to achieve a 100 μg/ml concentration. Membrane suspension was plated in a 96-well plate at 200 IμLs/well±10 μM phentolamine HCl (Sigma, cat. # P-7547) and [Methyl-^3H] Rauwolscine (15 nM to 0.05 nM; PerkinElmer, cat. # NET722250UC). The assay plate was slowly shaken and incubated at 25° C. for ninety minutes. Immediately following the above incubation, the assays were terminated by vacuum filtration over GF/B filters. Filters were then washed with 4° C. HBSS-HEPES buffer. The incorporated [Methyl-^3H] Rauwolscine was determined using a Microbeta 1450B liquid scintillation counter after the plates had dried overnight.

[1] = test system: blue light model of retinal degeneration in rats; assay: blue light model of retinal degeneration, retinal thickness by OCT; format: in vivo, Sprague Dawley rats; conditions: 1 mg/kg/day subcutaneous infusion from two days before 4 hours blue light, OCT at 7 days post exposure, versus saline
Description: (§1) Drugs were administered continuously with subcutaneous infusion pumps at a dose of 1 mg/kg/day starting two days before blue light exposure. These concentrations result in drug levels in the retina of 2.3 ng/g OH-dexmedetomidine which are sufficient for pharmacological activity. Twenty 4-month old male Sprague Dawley rats (body weight 470-550 g) were used in this study. The animals were exposed to room light on a 12 hour light/12 hour dark cycle before the experiment. All animals were dark adapted overnight (16-20 hours) before blue light. Under the intensity of 6100-6500 lux, rats were exposed to blue light for 4 hours. After the blue light, rats were placed in the dark for another 3 days before returning to normal 12 hour light/12 hour dark. Ocular Coherence Tomography (OCT) measurement was performed at 7 days post blue light exposure. […] Histology studies have shown that the reduction in retinal thickness is attributable to loss of photoreceptors.

[2] = drug level in the retina under continuous subcutaneous infusion; format: in vivo, Sprague Dawley rats; conditions: rats, continuous subcutaneous infusion pumps, 1 mg/kg/day
Description: as §1

Compound | EC50 (alpha 2A receptor) [nM] | Relative Efficacy (alpha 2A receptor) | down regulation of alpha 2A receptor (receptor density) (α2A-adrenergic receptor) | Percent of B max Decrease (α2A-adrenergic receptor; compound concentration 1 μM) [%] | Percent of B max Decrease (α2A-adrenergic receptor; compound concentration 10 μM) [%] | damage caused by blue light (reduction of retinal thickness measured by OCT) [1] | damage caused by blue light (reduction of retinal thickness measured by OCT) ([1]; listed as (S) [3-(1-(1H-imidazol-4-yl)ethyl)-2-methylphenyl] methanol) | drug levels in the retina [2] [ng/g]
Cc1c(CO)cccc1C(C)c1c[nH]cn1 (racemic) [OH-medetomidine, [3-(1-(1H-imidazol-4-yl)ethyl)-2-methylphenyl] methanol, reference compound] | 20 | 0.26 | – | – | – | – | – | –
Brc1c(N=C2NCCN2)ccc2nccnc12 [brimonidine, (5-bromo-quinoxalin-6-yl)-imidazolidin-2-ylidene-amine, reference compound] | – | – | strong reduction in the alpha 2A receptor density | −45 | −60 | – | – | –
Cc1c(CO)cccc1[C@H](C)c1c[nH]cn1 [OH-dexmedetomidine, (S) [3-(1-(1H-imidazol-4-yl)ethyl)-2-methylphenyl] methanol] | 45 | 0.65 | very little down regulation of alpha 2A receptor | −25 | −14 | significantly reduced the damage caused by blue light | reduced the damage caused by blue light | 2.3
